The text below walks through data of PubChem BioAssay AID248 (DTP/NCI, 2004).

This experiment deals with L1210 leukemia ip in BDF1 mice, survival T/C. Description: NCI In Vivo Anticancer Drug Screen. Data for tumor model L1210 Leukemia (intraperitoneal) in B6D2F1 (BDF1) mice. The settings on record: endpoint: mean survival time, higher = longer survival. Put shortly:
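Transplanted-tumor mice were given test agent; controls received vehicle only. Survival readings from the two groups were divided (treated over control).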

Setting [1] is: dose: 100.0 mg/kg/injection, schedule: Q01DX001 (ip), vehicle: carboxymethylcellulose (CMC).
[2] abbreviates: dose: 200.0 mg/kg/injection, schedule: Q01DX001 (ip), vehicle: carboxymethylcellulose (CMC).
The mark [3] stands for this setting: dose: 400.0 mg/kg/injection, schedule: Q01DX001 (ip), vehicle: carboxymethylcellulose (CMC).
[4] abbreviates: dose: 100.0 mg/kg/injection, schedule: Q01DX001 (ip), vehicle: saline.
Where [5] appears, read: dose: 200.0 mg/kg/injection, schedule: Q01DX001 (ip), vehicle: saline.
Setting [6] is: dose: 400.0 mg/kg/injection, schedule: Q01DX001 (ip), vehicle: saline.
Setting [7] is: dose: 100.0 mg/kg/injection, schedule: Q04DX003 (ip), vehicle: Klucel (hydroxypropylcellulose) (HPC).
The mark [8] stands for this setting: dose: 200.0 mg/kg/injection, schedule: Q04DX003 (ip), vehicle: Klucel (hydroxypropylcellulose) (HPC).
Where [9] appears, read: dose: 100.0 mg/kg/injection, schedule: Q01DX009 (ip), vehicle: saline with Tween-80.
Where [10] appears, read: dose: 200.0 mg/kg/injection, schedule: Q01DX009 (ip), vehicle: saline with Tween-80.
Setting [11] is: dose: 400.0 mg/kg/injection, schedule: Q01DX009 (ip), vehicle: saline with Tween-80.

Where “and” joins values, the source holds several entries; their conditions need not be identical. Identical values can stand only once. Toxic doses and inconclusive results are not listed.

On to `O=C(Nc1ccc(S(=O)(=O)c2ccc(NC(=O)C(F)(F)N3CCOCC3)cc2)cc1)C(F)(F)N1CCOCC1`, for which the T/C is, setting by setting: under setting [1], 103 % of control; under setting [2], 97 % of control; under setting [3], 103 % of control.

`O=C(OCc1ccc([N+](=O)[O-])o1)c1ccc(Cl)cc1`: the T/C is 97 % of control under setting [4], 101 % of control under setting [5] and 92 % of control under setting [6].

For `CN(C)C(=O)Sc1ccc(SC(=O)N(C)C)cc1`, the T/C (dose: 100.0 mg/kg/injection, schedule: Q01DX001 (ip), vehicle: saline with Tween-80) is 97 % of control; the T/C (dose: 200.0 mg/kg/injection, schedule: Q01DX001 (ip), vehicle: saline with Tween-80) is 97 % of control; the T/C (dose: 400.0 mg/kg/injection, schedule: Q01DX001 (ip), vehicle: saline with Tween-80) was 97 % of control.

As for `CC(NP1(=O)OCC(C)(N=Cc2ccccc2)CO1)c1ccccc1` (stereo not given), the T/C is 104 % of control (dose: 50.0 mg/kg/injection, schedule: Q01DX001 (ip), vehicle: saline); 98 % of control under setting [4]; 104 % of control under setting [5]; 95 % of control under setting [6].

Consider `CC(C)C(C)/C=C\C(C)C1CCC2C3=CCC4CC(O)CCC4(C)C3CCC21C` (stereo not given), for which the T/C reads like this: (dose: 100.0 mg/kg/injection, schedule: Q01DX001 (ip), vehicle: Klucel (hydroxypropylcellulose) (HPC)) 97 % of control; (dose: 200.0 mg/kg/injection, schedule: Q01DX001 (ip), vehicle: Klucel (hydroxypropylcellulose) (HPC)) 97 % of control; (dose: 400.0 mg/kg/injection, schedule: Q01DX001 (ip), vehicle: Klucel (hydroxypropylcellulose) (HPC)) 97 % of control.

Regarding `CC1(C)CN=C(SC(=O)c2ccc([N+](=O)[O-])cc2)S1`, the T/C was 100 % of control (dose: 100.0 mg/kg/injection, schedule: Q04DX002 (ip), vehicle: gum acacia); 93 % of control (dose: 200.0 mg/kg/injection, schedule: Q04DX002 (ip), vehicle: gum acacia); 93 % of control (dose: 400.0 mg/kg/injection, schedule: Q04DX002 (ip), vehicle: gum acacia).

`Cn1c(=O)c2[nH]c(-c3ccc4c(c3)OCO4)nc2n(C)c1=O`: the T/C is, setting by setting: (dose: 50.0 mg/kg/injection, schedule: Q01DX001 (ip), vehicle: other) 95 % of control; (dose: 100.0 mg/kg/injection, schedule: Q01DX001 (ip), vehicle: other) 97 % of control; (dose: 200.0 mg/kg/injection, schedule: Q01DX001 (ip), vehicle: other) 95 % of control; (dose: 400.0 mg/kg/injection, schedule: Q01DX001 (ip), vehicle: other) 86 % of control.

In the case of `CC(=O)NNC(=O)c1cnccn1`, the T/C reads like this: (dose: 6.25 mg/kg/injection, schedule: Q04DX003 (ip), vehicle: saline) 100 % of control; (dose: 12.5 mg/kg/injection, schedule: Q04DX003 (ip), vehicle: saline) 97 % of control; (dose: 24.0 mg/kg/injection, schedule: Q04DX003 (ip), vehicle: saline) 97 % of control; (dose: 25.0 mg/kg/injection, schedule: Q01DX009 (ip), vehicle: water) 95 % of control and 98 % of control; (dose: 48.0 mg/kg/injection, schedule: Q04DX003 (ip), vehicle: saline) 102 % of control; (dose: 50.0 mg/kg/injection, schedule: Q01DX009 (ip), vehicle: water) 97 % of control and 102 % of control. Further, the T/C by setting is: (dose: 100.0 mg/kg/injection, schedule: Q01DX009 (ip), vehicle: water) 112 % of control and 123 % of control; (dose: 200.0 mg/kg/injection, schedule: Q01DX001 (ip), vehicle: water) 103 % of control; (dose: 200.0 mg/kg/injection, schedule: Q01DX009 (ip), vehicle: water) 116 % of control and 118 % of control.

Regarding `CCCNC(=O)OC1CCS(=O)(=O)C1` (stereo not given), the T/C reads like this: (dose: 100.0 mg/kg/injection, schedule: Q04DX002 (ip), vehicle: Klucel (hydroxypropylcellulose) (HPC)) 95 % of control; (dose: 200.0 mg/kg/injection, schedule: Q04DX002 (ip), vehicle: Klucel (hydroxypropylcellulose) (HPC)) 100 % of control; (dose: 400.0 mg/kg/injection, schedule: Q04DX002 (ip), vehicle: Klucel (hydroxypropylcellulose) (HPC)) 95 % of control.

Regarding `CCCCCCCN(CCCCCCC)CC(O)c1cc2ccc(Cl)cc2c2cccnc12` (stereo not given), the T/C (dose: 50.0 mg/kg/injection, schedule: Q01DX009 (ip), vehicle: Klucel (hydroxypropylcellulose) (HPC)) is 98 % of control; the T/C (dose: 100.0 mg/kg/injection, schedule: Q01DX009 (ip), vehicle: Klucel (hydroxypropylcellulose) (HPC)) was 96 % of control; the T/C under setting [7] is 102 % of control; the T/C under setting [8] is 104 % of control.

As for `O=C(Nc1ccc(NC(=O)Nc2cccc(C3=NCCCN3)c2)cc1)Nc1cccc(C2=NCCCN2)c1`, the T/C reads like this: (dose: 6.25 mg/kg/injection, schedule: Q01DX Z (ip), vehicle: carboxymethylcellulose (CMC)) 101 % of control; (dose: 8.0 mg/kg/injection, schedule: Q01DX Z (oral), vehicle: carboxymethylcellulose (CMC)) 104 % of control; (dose: 12.5 mg/kg/injection, schedule: Q01DX Z (ip), vehicle: carboxymethylcellulose (CMC)) 102 % of control; (dose: 16.0 mg/kg/injection, schedule: Q01DX Z (oral), vehicle: carboxymethylcellulose (CMC)) 95 % of control; (dose: 31.0 mg/kg/injection, schedule: Q01DX Z (oral), vehicle: carboxymethylcellulose (CMC)) 97 % of control; (dose: 50.0 mg/kg/injection, schedule: Q01DX Z (ip), vehicle: carboxymethylcellulose (CMC)) 157 % of control. Moreover, the T/C (dose: 62.0 mg/kg/injection, schedule: Q01DX Z (oral), vehicle: carboxymethylcellulose (CMC)) was 103 % of control; the T/C (dose: 125.0 mg/kg/injection, schedule: Q01DX Z (oral), vehicle: carboxymethylcellulose (CMC)) is 106 % of control; the T/C (dose: 250.0 mg/kg/injection, schedule: Q01DX Z (oral), vehicle: carboxymethylcellulose (CMC)) is 105 % of control; the T/C (dose: 500.0 mg/kg/injection, schedule: Q01DX Z (oral), vehicle: carboxymethylcellulose (CMC)) was 106 % of control.

As to `CCCCCCCCC/C(C)=C1/SC(=S)NC1=O`, the T/C under setting [4] is 102 % of control; the T/C (dose: 100.0 mg/kg/injection, schedule: Q01DX009 (ip), vehicle: saline) was 88 % of control; the T/C under setting [5] is 93 % of control; the T/C under setting [6] is 95 % of control.

`CCCCN(CCCC)/C(=C/C(=O)OC)C(=O)OC`: the T/C is 94 % of control under setting [7]; 100 % of control under setting [8]; 94 % of control (dose: 400.0 mg/kg/injection, schedule: Q04DX003 (ip), vehicle: Klucel (hydroxypropylcellulose) (HPC)).

Turning to `CC1=CC2C(O)(CC(CO)=CC3C4C(C)(C)C4(O)C(O)C(C)C32O)C1=O` (stereo not given), the T/C reads like this: (dose: 50.0 mg/kg/injection, schedule: Q01DX001 (ip), vehicle: saline sonified) 112 % of control; (dose: 100.0 mg/kg/injection, schedule: Q01DX001 (ip), vehicle: saline sonified) 101 % of control; (dose: 200.0 mg/kg/injection, schedule: Q01DX001 (ip), vehicle: saline sonified) 91 % of control.

As to `CCc1ccc(C(=O)C2CC2)cc1`, the T/C under setting [9] is 102 % of control; the T/C (dose: 100.0 mg/kg/injection, schedule: Q04DX003 (ip), vehicle: saline with Tween-80) was 93 % of control; the T/C under setting [10] was 104 % of control; the T/C (dose: 200.0 mg/kg/injection, schedule: Q04DX003 (ip), vehicle: saline with Tween-80) was 96 % of control; the T/C under setting [11] was 110 % of control; the T/C (dose: 400.0 mg/kg/injection, schedule: Q04DX003 (ip), vehicle: saline with Tween-80) is 96 % of control.

Take `Cc1ccc2c(C)cc(=O)[nH]c2c1`: the T/C under setting [1] is 102 % of control; the T/C under setting [9] was 102 % of control; the T/C under setting [2] was 91 % of control; the T/C under setting [10] was 101 % of control; the T/C under setting [3] is 105 % of control; the T/C under setting [11] is 106 % of control.

Consider `Cc1ncc(CO)c(C2NOCc3ccc(Cl)cc32)c1O` (stereo not given), for which the T/C (dose: 100.0 mg/kg/injection, schedule: Q04DX003 (ip), vehicle: acetone) is 104 % of control.

For `CC1C2CCC(C2)C1CO` (stereo not given), the T/C is, setting by setting: (dose: 100.0 mg/kg/injection, schedule: Q04DX003 (ip), vehicle: saline) 97 % of control; (dose: 200.0 mg/kg/injection, schedule: Q04DX003 (ip), vehicle: saline) 101 % of control; (dose: 400.0 mg/kg/injection, schedule: Q04DX003 (ip), vehicle: saline) 101 % of control.
